In brackets after ≈: the same amount, converted by molar mass.
Columns and labels:
[1] = test system: K562; test: Cytotoxicity against human K562 cells by spectrophotometric analysis; format: functional, cell-based
[2] = test system: P388; test: Cytotoxicity against mouse P388 cells; format: functional; conditions: read-out: ED50 (the source's name)

Row | Compound | IC50 [1] [µM] | EC50 [2] [µg/mL]
1 | CC(=O)O[C@@H](C[C@H]1C(C)(C)C(=O)C=C[C@]1(C)O)/C(C)=C/[C@H](O)C/C=C(\C)CC[C@H]1C(C)(C)[C@@H](O[C@@H]2O[C@H](CO)[C@H](O)[C@H](O)[C@H]2O)CC[C@]1(C)OC(C)=O [POUOSIDE G] | > 100 | 
2 | CC(=O)O[C@@]1(C)CC[C@H](O[C@@H]2O[C@H](CO)[C@H](O)[C@H](O)[C@H]2O)C(C)(C)[C@@H]1CC/C(C)=C/C[C@@H](O)/C=C(\C)C(=O)C[C@H]1C(C)(C)C(=O)C=C[C@]1(C)O [POUOSIDE H] | > 100 | 
3 | CC(=O)O[C@@]1(C)CC[C@H](O[C@@H]2O[C@H](CO)[C@H](O)[C@H](O)[C@H]2O)C(C)(C)[C@@H]1CC/C(C)=C/C[C@@H](O)/C=C(\C)[C@@H](O)C[C@@H]1C(C)=CCC(=O)C1(C)C [POUOSIDE F] | > 100 | 
4 | CC(=O)O[C@@]1(C)CC[C@H](O)C(C)(C)[C@@H]1CC/C(C)=C/C[C@@H](O)/C=C(\C)C(=O)C[C@H]1C(C)(C)C(=O)C=C[C@]1(C)O [POUOGENIN E] | 18.9 | 
5 | C=C1CC[C@H](O[C@@H]2O[C@H](CO)[C@H](O)[C@H](O)[C@H]2O)C(C)(C)[C@@H]1CC/C(C)=C/C[C@H](/C=C(\C)[C@H](C[C@@H]1C(C)=CCC(=O)C1(C)C)OC(C)=O)OC(C)=O [POUOSIDE I] | > 100 | 
6 | CC(=O)O[C@@H](C[C@@H]1C(C)=CCC(=O)C1(C)C)/C(C)=C/[C@@H](C/C=C(\C)CC[C@H]1C(C)(C)[C@@H](O[C@@H]2O[C@H](CO)[C@H](O)[C@H](O)[C@H]2O)CC[C@]1(C)OC(C)=O)OC(C)=O [POUOSIDE A] | 17 | 1.5 (≈ 1.93 µM)
7 | COc1cccc2c1C(=O)c1c(O)c3c(c(O)c1C2=O)C[C@@](O)(C(=O)CO)C[C@@H]3O[C@H]1C[C@H](N)[C@H](O)[C@H](C)O1 [DOXORUBICIN] | 13.6 | 
8 | CC(=O)O[C@H]1[C@H](O[C@H]2CC[C@](C)(OC(C)=O)[C@@H](CC/C(C)=C/C[C@H](/C=C(\C)[C@H](C[C@@H]3C(C)=CCC(=O)C3(C)C)OC(C)=O)OC(C)=O)C2(C)C)O[C@H](CO)[C@H](O)[C@@H]1O [POUOSIDE D] | 12.5 | 
9 | CC(=O)O[C@@]1(C)CC[C@H](O)C(C)(C)[C@@H]1CC/C(C)=C/C[C@@H](O)/C=C(\C)[C@@H](O)C[C@@H]1C(C)=CCC(=O)C1(C)C [POUOGENIN A] | 14.8 | 
10 | CC(=O)O[C@@H](C[C@@H]1C(C)=CCC(=O)C1(C)C)/C(C)=C/[C@@H](C/C=C(\C)CC[C@H]1C(C)(C)[C@@H](O)CC[C@]1(C)OC(C)=O)OC(C)=O [POUOGENIN B] | 38.9 | 
11 | CC(=O)O[C@@H](C[C@H]1C(C)(C)C(=O)C=C[C@]1(C)O)/C(C)=C/[C@H](O)C/C=C(\C)CC[C@H]1C(C)(C)[C@@H](O)CC[C@]1(C)OC(C)=O [POUOGENIN D] | 27.5 | 
12 | CC(=O)O[C@@H](C[C@@H]1C(C)=CCC(=O)C1(C)C)/C(C)=C/[C@H](O)C/C=C(\C)CC[C@H]1C(C)(C)[C@@H](O)CC[C@]1(C)OC(C)=O [POUOGENIN C] | 14.6 | 
13 | CC(=O)O[C@@H](C[C@@H]1C(C)=CCC(=O)C1(C)C)/C(C)=C/[C@H](O)C/C=C(\C)CC[C@H]1C(C)(C)[C@@H](O[C@@H]2O[C@H](CO)[C@H](O)[C@H](O)[C@H]2O)CC[C@]1(C)OC(C)=O [POUOSIDE B] | > 100 | 
